Patent publication EP2692724B1, “CHIRAL 3-HYDROXYPYRID-4-ONE DERIVATIVE, AND SYNTHESIS AND USE THEREOF” (Zhejiang University, priority 2011, dated 2012)
Where a name gives a salt, the structure may show the parent alone.

Legend:
^59Fe-Ferritin = experiment: Biological effect of iron chelators over 59Fe-Ferritin/Rat (iron excretion ability, oral); type: in vivo; details: for Iron Excretion (%): rat model, taken orally (intragastric) 1 h after tail vein injection of 59Fe-Ferritin, test ends after 24 h, n=5; for iron excretion ability compared with CP20: in vivo rat test, administered in equimolar amounts
Protocol: According to methods described by Pippard's research group [Blood 58: 685-692], use ^59Fe to label ferritin in rat liver. Isolate ^59Fe-labelled ferritin by the method described by Bjorklid and Helgeland. In the preparation process, the rats were injected intraperitoneally with iron dextran, and intravenous administration of red blood cells, in order to keep the plasma transferrin saturated. This method ensures that most of ^59Fe (III) is absorbed by the liver, so ^59Fe-ferritin with high specific radioactivity can be obtained.
Performance of one shot intraperitoneal injection of 15mg iron dextran to 350∼400 g rats. After one week, jugular vein cannula is performed and then a 24 h's rest. Then the second day, each rat is given packed red cells (2 mL/100g). After 24 h, each rat is injected via the jugular vein cannula with 200 µCi ^59FeCl solution (Amersham Life Science). ^59FeCl3 (1mCi) is diluted 0.5 mL citrate (50mM, pH 2.5). Each experiment employs 5 rats, total radiation is 1mCi. 24 h after isotopically labeled injection, the livers were removed from rats.
Homogenization of liver is processed in 4 vol. (w/v) 0.25M acetate buffer. The homogenate was heated to 75°C with stirring for 10min. After cooling to 4°C, remove solid protein by centrifugation at 2500 g for 15 min. Treat the supernatant that contains tissue iron protein with half saturated (NH4)2SO4, while cooling in ice water for 30 min. The precipitate obtained by centrifugation at 3500 g at 4°C for 15 min, is dissolved in 0.25M pH=4.8 acetate buffer. Undissolved precipitate is removed through a Pd-10 column (Sephadex®, G-25M, Pharmacia Biotech). The resulting solution is centrifuged at 100,000 g at 4°C for 2 h. The final precipitate is dissolved in 0.05M pH=7.4 phosphate buffer, and stored at 4°C. The purity of ^59Fe-ferritin and normal Ferritin (Sigma Chemical Co.) are compared by electrophoresis. Iron concentration of ferritin is tested by colorimetry [Biochem Mol. Biol Int 35(3): […]].
Starved rat was injected ^59Fe-Ferritin via tail vein, in order to label rat liver cells with ^59Fe. After 1 h, each rat is given an iron chelator via intragastric injection. Blank group is administered with water by lavage. Each rat is placed in a metabolic cage, collect urine and feces. All rats are given free access to food after oral administration 1h later, and are free to drink water during the whole experiment. Test ends after 24 h of the tail vein injection of ^59Fe-Ferritin. All rats are killed by the cervical dislocation, then the liver and gastrointestinal system (including its content and feces) are collected for ^59Fe quantification. Calculation for iron excretion ability of iron chelators with following formula: (1) Iron Excretion(%)=^59Fe Activity(intestinal track & feces)/(^59Fe Activity(intestinal tracks & feces)+ ^59Fe Activity(liver))×100% Table 1 Iron excretion ability of taking chiral 3-hydroxypyridine-4-one orally on rat model (n=5).

mice = experiment: Acute toxicity test in mice (maximum oral dosage); type: in vivo; details: suspension of maximum solubility in 0.5% CMC-Na, dose with no fatality
Protocol: Prepare suspension of maximum solubility of each compound with 0.5% CMC-Na. Maximum oral dosage to mice is 0.4 mL/10g. Blank group took the same volume 0.5% CMC-Na solution orally (blank group and test group has 4 mice each, 2 female and 2 male). […] Monitor reaction of animal right after drug administration, including appearance, activities, mental states, appetites, urea/feces and its color, fur, nose, eye, mouth, if there are any abnormal secretions and death situation, give timely autopsy to dead animals. If any obvious pathology of organs is found, perform histopathological inspection. Every inspection should be performed every 30∼60 min in the 1st day, then check once a day, record animal toxicity and death distribution. Table 2. Maximum dosage of a few 3-hydroxypyridin-4-one derivatives to mice.

[1] = reduced by glycosylation of the hydroxyl group at 3' position; cited from earlier work

| Molecule | Iron Excretion (%) (^59Fe-Ferritin) | other results |
| --- | --- | --- |
| 3-Hydroxy-1-((2S)-1-hydroxy-3-methyl pentyl-2-)-2-ethyl pyridine-4(1H)-one hydrochloride [CN436] | 5.8 |  |
| 3-Hydroxy-1-((2S)-1-hydroxy-3-methyl pentyl-2-)-2-methyl pyridine-4(1H)-one hydrochloride [CN336] | 10.8 |  |
| Cc1c(O)c(=O)ccn1[C@H](CO)C(C)C [CN116, (S)-3-Hydroxy-1-(1-hydroxy-3-methylbutyl-2-)-2-methyl pyridine-4(1H)-one] | 18.7 | iron excretion ability compared with CP20 (^59Fe-Ferritin): several times better than CP20 |
| Cc1c(O)c(=O)ccn1[C@@H](CO)Cc1ccccc1 [CN128, (R)-3-Hydroxy-1-(1-hydroxy-3-benzylpropyl-2-)2-methyl pyridine-4(1H)-one] | 24.8 | iron excretion ability compared with CP20 (^59Fe-Ferritin): several times better than CP20 |
| CCc1c(O)c(=O)ccn1[C@@H](C)CO [CN206, (S)-3-Hydroxy-1-(1-hydroxypropyl-2-)-2-ethylpyridine-4(1H)-one] | 16 | iron excretion ability compared with CP20 (^59Fe-Ferritin): several times better than CP20; Maximum dosage: Dosage(g/kg) (mice): 3.75 g/kg; Maximum dosage: Mole dosage(mmol/kg) (mice): 19.0 mmol/kg |
| CCc1c(O)c(=O)ccn1[C@@H](CO)Cc1ccccc1 [CN228, (R)-3-Hydroxy-1-(1-hydroxy-3-phenylpropyl-2-)-2-ethyl pyridine-4(1H)-one] | 22.3 | iron excretion ability compared with CP20 (^59Fe-Ferritin): several times better than CP20 |
| Cc1c(O)c(=O)ccn1[C@@H](CO)C(C)C [CN318, (R)-3-Hydroxy-1-(1-hydroxy-3-methylbutyl-2-)-2-methyl pyridine-4(1H)-one hydrochloride] | 8.0 |  |
| Cc1c(O)c(=O)ccn1[C@H](CO)Cc1ccccc1 [CN326, (S)-3-Hydroxy-1-(1-hydroxy-3-phenylpropyl-2-)-2-methyl pyridine-4(1H)-one hydrochloride] | 12.8 |  |
| CCc1c(O)c(=O)ccn1[C@H](C)CO [CN408, (R)-3-Hydroxy-1-(1-hydroxy-3-propyl-2-)-2-ethyl pyridine-4(1H)-one hydrochloride] | 10.6 |  |
| CCc1c(O)c(=O)ccn1[C@H](CO)C(C)C [CN416, (S)-3-Hydroxy-1-(1-hydroxy-3-methylbutyl-2-)-2-ethyl pyridine-4(1H)-one hydrochloride] | 7.9 |  |
| CCc1c(O)c(=O)ccn1[C@@H](CO)C(C)C [CN418, (R)-3-Hydroxy-1-(1-hydroxy-3-methylbutyl-2-)-2-ethyl pyridine-4(1H)-one hydrochloride] | 10.6 |  |
| CCc1c(O)c(=O)ccn1[C@H](CO)Cc1ccccc1 [CN426, (S)-3-Hydroxy-1-(1-hydroxy-3-phenylpropyl-2-)-2-ethyl pyridine-4(1H)-one hydrochloride] | 13.1 |  |
| Cc1c(O)c(=O)ccn1C [CP20, reference compound] | 11.4 | Maximum dosage: Dosage(g/kg) (mice): 1.50 g/kg; Maximum dosage: Mole dosage(mmol/kg) (mice): 10.7 mmol/kg; half-life [1]: 2∼3 h |
| (R)-3-Hydroxy-1-(1-hydroxy-3-propyl-2-)-2-methyl pyridine-4(1H)-one hydrochloride [CN308] | 6.5 |  |
| (S)-3-hydroxy-1-(1-hydroxy propyl-2-)-2-methyl pyridine-4(1H)-one hydrochloride [CN306] | 11.9 |  |
